Data as given in US20150359884A1, “MULTI-PHOTON ISOMERISATION OF COMBRETASTATINS AND THEIR USE IN THERAPY” (priority 2011, published 2015).

Key:
[1] = Isomerization by two-photon absorption at 590 nm in DMSO solution; assay type: physicochemical; settings: Z-CA4 1 mM in DMSO, two-photon excitation 590 nm
Method: FIG. 11. […] (A) Power dependence of FI from E-CA4 (0.4 mM) versus laser power at the sample. (B) Percentage conversion of Z-CA4 to the E-isomer versus laser power at the sample, calculated from the measured FI from a solution of Z-CA4 (1 mM) and a series of calibration curves using solutions of E-CA4 at each laser power.
Using 2PE the photochemical effects occur within the femtolitre volume of excitation. […] At any one instant, the concentration of isomerized compound in the focal volume will represent a steady state achieved through the balance of diffusion from the focal volume and the rate of photochemical formation.
Calibration curves were constructed of FI versus E-CA4 concentration at each laser power. These were then compared with the FI from the two-photon experiment with Z-CA4 to estimate the concentration of E-CA4 formed within the focal volume.

[2] = Picosecond time-resolved infrared (TRIR) spectroscopy of excited states; assay type: physicochemical; settings: dichloromethane, 266 nm excitation
Method: The ultrafast time-resolved infrared (TRIR) experiments were performed on the ‘ULTRA’ laser system at the Science and Technology Facilities Council Rutherford Appleton Laboratory. The capabilities of the ULTRA instrument are described in detail elsewhere. Briefly, a chirped pulse amplified titanium:sapphire laser operating at 10 kHz repetition rate produced 40-80 fs duration pulses at a wavelength of 800 nm. The UV excitation pulse was generated from third harmonic generation of the 800 nm output of the amplifier with ˜50 fs duration at 266 nm, irradiating samples with a 1 μJ, 100 μm diameter beam. The mid-IR probe pulse was generated using ˜0.4 mJ of the 800 nm femtosecond output to pump an optical parametric amplifier, and difference frequency mixing of the signal and idler components. The mid-IR probe output pulses had ˜500 cm-1 bandwidth and ˜50 fs pulse duration. The UV pulses were polarized at a magic angle to the IR probe laser polarization. The timing between the pump and probe was performed using a PCcontrolled optical delay line. The sample in solution was placed between two 25 mm diameter CaF2 plates in a rasterscanned Harrick cell to limit irradiation of the sample by multiple pulses. The optical path of the sample between the two windows was controlled using a 100 μm PTFE spacer and the solution flowed using a peristaltic pump. The intensity of the transmitted mid-IR light was dispersed by a grating onto a pair of 128-element mercury-cadmium telluride array detectors (IR Associates), providing full (i.e. ˜500 cm-1) spectral coverage with every laser pulse. The overall instrument response time was ˜200 fs. A reference spectrum of the laser pulse (before the Harrick cell) was accumulated on a third, 64-element array detector and was used to remove the effects of laser fluctuations from the transient absorption data. Ground-state FTIR spectra were recorded using a Nicolet Avatar 360 spectrometer.
FIGS. 12 and 13 show the TRIR spectra of both isomers of CA4 following ultrafast electronic excitation using 266 nm, with the ground-state FTIR spectra shown beneath the time resolved data for comparison. To date there has been little characterization of combretastatins by infrared spectroscopy. However, the ground-state FTIR spectra have obvious similarities with stilbene and on this basis we assign the 1586/1581 and 1510/1509 cm-1 bands in E-CA4/Z-CA4 to the v8a ring stretches of the phenyl groups and v19a ring stretch with additional contributions from C—H in-plane bending. In the excited state spectra, there are negative absorption bands corresponding to bleaching of the ground-state absorptions and both the E- and Z-isomers are dominated by transient bands between 1350 and 1500 cm-1. At early times the transient bands show rapid shifting over about 10 cm-1 to higher wavenumbers associated with rapid ‘cooling’ of excess vibrational energy following electronic excitation as commonly observed in other molecular systems including DNA [26] and for the C═C stretching band of E-stilbene observed by time-resolved resonance Raman spectroscopy. It is also notable that for E-CA4 at pump-probe delays up to 20 ps, the intensities of the transient bands increase and this is most likely due to molecular rearrangements taking place lowering the overall symmetry of the molecule and increasing the cross-sections of these IR active modes. […]

cells = settings: typical toxicity assays; cited from earlier work
[3] = Fluorescence lifetimes in solvents, two-photon excitation with TCSPC; assay type: physicochemical; settings: 20° C., two-photon excitation 620-630 nm
Method: Fluorescence lifetimes were determined using 2PE at 630 nm with the microscope TCSPC setup (overall time response of 25 ps fwhm) and produced the results shown in Table 1. […] Characterisation of the spectroscopic properties of these latter two compounds remains to be investigated further. […] In the very viscous environment provided by glycerol the lifetime increases further to 1180 ps. In the range of alkanols studied the lifetime is closely correlated with solvent viscosity as shown in the inset to FIG. 3. […] However it is clear that the measured lifetime has the potential to report on cellular environments in FLIM studies. For E-CA4F similar trends are observed, but the overall differences in both lifetimes and quantum yields over the range of solvents are rather less than for E-CA4. The fluorescence lifetimes of E-CA4F are confined to a narrower range having values ranging from 440 ps in methanol through 740 ps in hexane to 1070 ps in glycerol. The more pronounced solvent dependence for E-CA4 no doubt reflects the more polar nature of the molecule compared with E-CA4F. The relative polarities may be judged from the partition coefficients (P) calculated according to the method of Brown et al..

[4] = Fluorescence quantum yields in solvents, UV one-photon excitation; assay type: physicochemical; settings: 20° C., 290-300 nm excitation
Method: Absorption spectra were measured in either a Perkin Elmer Lambda 25 or 950 spectrophotometer. Fluorescence measurements were made with either a Spex Fluoromax or Varian Cary Eclipse spectrofluorimeter using the spectral correction curves supplied by the manufacturers. Fluorescence quantum yields with UV (one-photon) excitation were determined using either 2-aminopyridine (Φref 0.6 [7]) or 9-chloroanthracene (Φref 0.50 in dichloromethane, determined here relative to 9,10-diphenylanthracene in cyclohexane (Φref 0.97) and anthracene in ethanol (Φref 0.28 [8]) as standards. Fluorescence quantum yields were determined from the relative slopes of plots of integrated fluorescence intensity versus (1-10^−A) for samples having absorbance A≦0.1. The square of the refractive index (n^2) correction was applied when sample and reference compounds were in different solvents. Irradiation of the samples was minimized by the use of narrow excitation slits to reduce simultaneous photoisomerization.
The fluorescence quantum yields for E-CA4F were generally somewhat higher than for E-CA4.

[5] = Two-photon absorption cross section using reference fluorophore 9-chloroanthracene; assay type: physicochemical; settings: at 620 nm, DCM
Description: Cell images were overlaid using Adobe Photoshop CS3.
Published cross sections for two photon absorption (σ2, the probability of an absorption process or photon interaction) typically show large variations depending on the method of measurement, using either the Z-scan method or a reference fluorophore, and the power range and pulse duration of the laser used for excitation. We have attempted to determine values of σ2 for E-CA4 and E-ACA4 using a reference fluorophore. 9-Chloroanthracene (9CIA) was selected as a standard fluorophore with an appropriate fluorescence spectrum and for which 2PE cross-sections are available. The values of σ2 at 620 nm for E-CA4 and E-CA4F in DCM were determined to be 2.1±0.5 and 2.75±0.6 GM units respectively. […] Values of σ2 at 620 nm for E-ACA and E-DMAC were both 5.7±1.2. These larger values may be consistent with some charge transfer character of the excitation of these compounds.

[6] = Observed solubility in water; assay type: physicochemical; settings: aqueous solution, comparison in words

Structure (SMILES)	Concentration of E-CA4 formed within the focal volume [1]	Conversion of the initial concentration of Z-CA4 to the E-isomer [1]	Excited state decay, longer lifetime (relaxed excited state) [2]	Excited state decay, shorter lifetime (biexponential fit) [2]	Concentrations required to kill cells (cells)	Fluorescence lifetime τ ([3]; DMSO)	Fluorescence lifetime τ ([3]; EtOH, ne = non-exponential)	Fluorescence lifetime τ ([3]; Ethylene glycol, ne = non-exponential)	Fluorescence lifetime τ ([3]; Glycerol, ne = non-exponential)	Fluorescence lifetime τ ([3]; Hexane)	Fluorescence lifetime τ ([3]; MeCN, ne = non-exponential)	Fluorescence lifetime τ ([3]; MeOH, ne = non-exponential)	Fluorescence quantum yield φ ([4]; DCM)	Fluorescence quantum yield φ ([4]; DMSO)	Fluorescence quantum yield φ ([4]; Hexane)	Fluorescence quantum yield φ ([4]; MeCN)	Fluorescence quantum yield φ ([4]; MeOH)	Two photon absorption cross section σ2 [5]	Solubility in water [6]
COc1ccc(/C=C\c2cc(OC)c(OC)c(OC)c2)cc1O [Z-CA4, combretastatin A4, reference compound]	about 250 μM	25%	10.1±0.71 ps	1.5±0.15 ps	nanomolar														
COc1ccc(/C=C/c2cc(OC)c(OC)c(OC)c2)cc1N [E-ACA, (E)-1-(3′-Amino-4′-methoxyphenyl)-2-(3″,4″,5″-trimethoxyphenyl)ethene]						4.8 ns	ne	ne	ne	1.65 ns	3.6 ns	ne	0.43	0.28	0.38	0.41	0.11	5.7±1.2 GM units	more soluble in water than the other combretastatins studied here
